System: Peripheral blood mononuclear cells (pBMC) from a patient with chronic lymphatic leukaemia
Assay: Cytotoxicity of fludarabine phosphate on mononuclear cells, flow cytometry with fixed volume acquisition (PI exclusion)
Assay type: cell-based, human
Settings: 96 h; for relative cell survival: 100% = without fludarabine phosphate
Description: The peripheral blood mononuclear cells (pBMC) used in the examples were isolated from peripheral blood samples as described before (Staib, P. et al., Br. J. Haematol., 128(6):783-91 (2005)). The necessary peripheral blood (PB) samples from adult patients diagnosed with chronic lymphatic leukaemia (CLL) were collected into heparin during routine diagnosis prior to administration of chemotherapy.
Plate precoating with different amounts of fludarabine phosphate: 50 μl/well of an aqueous fludarabine phosphate solution were given in a 96-well microtiter plate (Greiner BioOne, Frickenhausen, Germany). Four different fludarabine phosphate concentrations (25; 8.33; 2.78; 0.93 μg/ml) were used. The control wells were kept empty. The plates were placed into an exsiccator and dried under vacuum for 8 h.
Peripheral blood mononuclear cells (pBMC) from a patient with chronic lymphatic leukaemia were isolated from the PB samples as described before (Staib, P. et al., Br. J. Haematol., 128(6):783-91 (2005)), resuspended in RPMI 1640 medium (Biochrom, Berlin, Germany) containing 20 vol. % fetal calf serum (FCS; Biochrom, Berlin, Germany) and added into the precoated 96-well plate with a final cell concentration of 10,000 cells/well and a volume of 100 μl. The plates were then agitated for 15 min in order to solubilize the dried fludarabine phosphate. Subsequently, the plates were incubated for 96 h (37° C., 5% CO2, humidified atmosphere). Thereafter, 50 μl of an 11 μM propidium iodide (PI)-solution in 0.9% aqueous NaCl solution (NaCl 0.9%) (Invitrogen, Leiden, Netherlands) were added and incubated for 15 min at room temperature. PI is a standard flow cytometric viability probe and is used to distinguish viable from nonviable cells. Viable cells with intact membranes exclude PI, whereas the membranes of dead and damaged cells are permeable to PI. PI only stains cells with compromised cell membrane, whilst live cells which have intact membranes are not stained by PI.
The plates were then analyzed using a FACSArray (BD Biosciences, San Jose, Calif., USA) flow cytometer. The following instrument settings were used:
2.0 μl/s sample flow rate
20 μl sample volume (n. b.: this is no absolute amount, but the set value of the instrument. Thus, the actual volume aspirated and analyzed by the instrument may be higher or lower than 20 μl: however, this actual volume is invariant from sample to sample during the analysis.)
500,000 maximum events (i.e. the number of maximum events exceeds the actual cell number in the sample considerably)
An identical fixed volume (preset sample volume on instrument: 20 μl) was aspirated from each sample and the absolute amount of living cells was counted. Living cells were defined as events with cellular light scatter characteristics and being negative for PI.
After switch-on and before analyzing a new kind of sample the flow cytometer must be re-calibrated. […] In addition cut-off values can be defined. Signals below this cut-off will be excluded from data acquisition. All cells with signal intensities above the cut-off are counted. The rectangle shown in FIG. 1 defines an area of signal intensities (FSC signal and PI signal) that is suitable for counting viable cells. All cells within this rectangle are counted.

[1] = 12.50 μg/ml final concentration

## Nc1nc(F)nc2c1ncn2[C@@H]1O[C@H](COP(=O)(O)O)[C@@H](O)[C@@H]1O [Fludarabine phosphate, 2-Fluoro-9-(5-O-phosphono-β-D-arabinofuranosyl)-9H-purin-6-amine]
0.46 μg/ml final concentration
  Total living cells counted in the fixed volume: 1,725
  relative cell survival: 41%
1.39 μg/ml final concentration
  Total living cells counted in the fixed volume: 758
  relative cell survival: 18%
4.17 μg/ml final concentration
  Total living cells counted in the fixed volume: 347
  relative cell survival: 8%
[1]
  Total living cells counted in the fixed volume: 186
  relative cell survival: 4%
12.50 μg/ml final concentration, listed as fludarabine phosphate
  relative cell survival: 4%

From patent US20100075370A1, “METHOD FOR DETERMINATION OF CELL VIABILITY BY USING FLOW CYTOMETRY WITH FIXED VOLUME ACQUISITION” (TUMORTEC GMBH, priority 2006, published 2010)
